Reference: patent publication US12729181B2, “Compounds, compositions, and methods for modulating calcium ion homeostasis” (The Regents of the University of California, priority 2020, dated 2026)

Tested on: tre^tc318 mutant embryos
Assay: Compound rescue screen: restoration of persistent heartbeat in tremblor embryos
Assay type: in vivo, Zebrafish
Conditions: for responders at 10 µM / responders at 15 µM / responders at 20 µM: Danio rerio, 48 h; for responders at 10 µM: read-out: Rescue at 10 uM (%); for responders at 15 µM: read-out: Rescue at 15 uM (%); for responders at 20 µM: read-out: Rescue at 20 uM (%); for Rescue at 10 uM (%): 10 uM from 30 hpf; for Rescue at 10 uM (%) / Rescue at 15 uM (%) / Rescue at 20 uM (%): cardiac function by visual inspection at 2 dpf, 10 embryos per well; for Rescue at 15 uM (%): 15 uM from 30 hpf; for Rescue at 20 uM (%): 20 uM from 30 hpf
Method: Zebrafish of the mutant line tremblor (tre^tc318) were maintained and bred as described previously in the literature. C. f. Langenbacher A D, et al., PNAS, 2005, 102(49), 17699-17704.
Exemplary compounds were screened for their ability to partially or completely restore persistent heartbeat in tre^tc318 embryos. 10 tre^tc318 mutant embryos were placed in each well of a 24-well plate and raised in the presence of individual compounds at various concentrations (5, 10, 15 and 20 μM) from 30 hpf. Cardiac function was analyzed by visual inspection at 2 dpf. The hearts of tre^tc318 embryos manifest a chaotic movement resembling cardiac fibrillation with sporadic contractions. Compounds that elicited persistent coordinated cardiac contractions were validated by rescreening at least once on another 10 tre^tc318 mutant embryos.

Compound | responders at 10 µM | responders at 15 µM | further results
CCOC(=O)C1=CCN(S(=O)(=O)c2ccc(Cl)cc2)C1c1ccc(Cl)c(Cl)c1 (stereo not shown) [FS087] | 22% | 0% | responders at 20 µM: 0%
CCOC(=O)C1=CCN(S(=O)(=O)c2ccccc2Br)C1c1ccc(Cl)c(Cl)c1 (stereo not shown) [FS029] | 70% | 10% | responders at 20 µM: 10%
CCOC(=O)C1=CCN(S(=O)(=O)c2ccc(Cl)cc2)C1c1cccc(C)c1 (stereo not shown) [FS091] | 0% |  | 
CCOC(=O)C1=CCN(S(=O)(=O)c2ccc(C)cc2)C1c1cccc(Cl)c1 (stereo not shown) [FS064] |  |  | Rescue at 10 uM (%): 20%
CCOC(=O)C1=CCN(S(=O)(=O)c2ccc(Cl)cc2)C1c1ccc(C)cc1 (stereo not shown) [FS086] |  |  | Rescue at 10 uM (%): 11%
CCOC(=O)C1=CCN(S(=O)(=O)c2ccc(C)cc2)C1c1cccc2ccccc12 (stereo not shown) [FS068] |  |  | Rescue at 10 uM (%): 0%; Rescue at 15 uM (%): 0%; Rescue at 20 uM (%): 0%
CCOC(=O)C1=CCN(S(=O)(=O)c2cccc(Br)c2)C1c1ccc(Cl)cc1 (stereo not shown) [FS136] |  | 29% | 
CCOC(=O)C1=CCN(S(=O)(=O)c2ccccc2C)C1c1cccc(C)c1 (stereo not shown) [FS025] | 0% |  | 
CCOC(=O)C1=CCN(S(=O)(=O)c2ccc(Br)cc2)C1c1cccc(C)c1 (stereo not shown) [FS096] | 22% |  | 
CCOC(=O)C1=CCN(S(=O)(=O)c2cccc(Cl)c2)C1c1cccc(F)c1 (stereo not shown) [FS121] |  | 56% | 
CCOC(=O)C1=CCN(S(=O)(=O)c2ccccc2Br)C1c1cccc(Cl)c1 (stereo not shown) [FS030] | 0% |  | 
CCOC(=O)C1=CCN(S(=O)(=O)c2ccc(Br)cc2)C1c1cccc(Cl)c1 (stereo not shown) [FS093] | 0% |  | 
CCOC(=O)C1=CCN(S(=O)(=O)c2ccc(C)cc2)C1c1ccc(Cl)c(Cl)c1 (stereo not shown) [FS065] | 11% |  | 
CCOC(=O)C1=CCN(S(=O)(=O)c2ccccc2Cl)C1c1cccc(F)c1 (stereo not shown) [FS027] | 0% |  | 
CCOC(=O)C1=CCN(S(=O)(=O)c2cccc(Cl)c2)C1c1ccc(Cl)c(Cl)c1 (stereo not shown) [FS118] |  | 10% | 
CCOC(=O)C1=CCN(S(=O)(=O)c2ccccc2C)C1c1ccccc1 (stereo not shown) [FS053] | 0% |  | 
CCOC(=O)C1=CCN(S(=O)(=O)c2ccc(Br)cc2)C1c1ccc(Cl)cc1 (stereo not shown) [FS099] | 0% | 33% | 
CCOC(=O)C1=CCN(S(=O)(=O)c2ccc(C)cc2)C1c1cccs1 (stereo not shown) [FS147] |  | 60% | 
CCOC(=O)C1=CCN(S(=O)(=O)c2ccccc2Cl)C1c1ccc(Br)cc1 (stereo not shown) [FS042] | 0% |  | 
CCOC(=O)C1=CCN(S(=O)(=O)c2ccccc2C(=O)OC)C1c1ccc(C)cc1 (stereo not shown) [FS076] | 40% | 60% | responders at 20 µM: 10%
CCOC(=O)C1=CCN(S(=O)(=O)c2ccc(F)cc2)C1c1ccc(Cl)cc1 (stereo not shown) [FS123] |  | 70% | 
CCOC(=O)C1=CCN(S(=O)(=O)c2ccc(C)cc2)C1c1ccc(C(C)C)cc1 (stereo not shown) [FS070] |  |  | Rescue at 10 uM (%): 0%
CCOC(=O)C1=CCN(S(=O)(=O)c2ccccc2C)C1c1cccc(Br)c1 (stereo not shown) [FS021] | 10% |  | 
CCOC(=O)C1=CCN(S(=O)(=O)c2ccccc2Cl)C1c1cccc(C)c1 (stereo not shown) [FS028] | 0% |  | 
CCOC(=O)C1=CCN(S(=O)(=O)c2ccccc2C)C1c1cccc(F)c1 (stereo not shown) [FS022] | 0% |  | 
CCOC(=O)C1=CCN(S(=O)(=O)c2ccccc2F)C1c1cccc(Cl)c1 (stereo not shown) [FS035] | 0% |  | 
CCOC(=O)C1=CCN(S(=O)(=O)c2ccc(Cl)cc2)C1c1ccc(Cl)cc1 (stereo not shown) [FS085] |  |  | Rescue at 10 uM (%): 89%; Rescue at 15 uM (%): 80%; Rescue at 20 uM (%): 80%
CCOC(=O)C1=CCN(S(=O)(=O)c2ccc(F)cc2)C1c1cccc(F)c1 (stereo not shown) [FS116] |  | 11% | 

Compound | responders at 10 µM | responders at 15 µM | further results
CCOC(=O)C1=CCN(S(=O)(=O)c2cccc(Br)c2)C1c1ccc(Br)cc1 (stereo not shown) [FS137] |  | 0% | 
CCOC(=O)C1=CCN(S(=O)(=O)c2ccccc2Cl)C1c1ccc(Cl)cc1 (stereo not shown) [FS041] | 44% | 30% | responders at 20 µM: 20%
CCOC(=O)C1=CCN(S(=O)(=O)c2ccc(C)cc2)C1c1ccccc1F (stereo not shown) [FS062] |  |  | Rescue at 10 uM (%): 50%; Rescue at 15 uM (%): 90%; Rescue at 20 uM (%): 60%
CCOC(=O)C1=CCN(S(=O)(=O)c2cccc(Cl)c2)C1c1cccc(C)c1 (stereo not shown) [FS122] |  | 33% | 
CCOC(=O)C1=CCN(S(=O)(=O)c2ccc(C)cc2)C1c1ccc(C(=O)OCC)cc1 (stereo not shown) [FS061] | 40% | 56% | responders at 20 µM: 40%
CCOC(=O)C1=CCN(S(C)(=O)=O)C1c1ccc(Cl)cc1 (stereo not shown) [FS139] |  |  | Rescue at 15 uM (%): 0%
CCOC(=O)C1=CCN(S(=O)(=O)c2ccc(F)cc2)C1c1ccc(Br)cc1 (stereo not shown) [FS124] |  | 90% | 
CCOC(=O)C1=CCN(S(=O)(=O)c2ccccc2Br)C1c1ccc(Br)cc1 (stereo not shown) [FS046] | 60% | 10% | responders at 20 µM: 10%
CCOC(=O)C1=CCN(S(=O)(=O)c2ccccc2)C1c1ccc(Cl)cc1 (stereo not shown) [FS072] |  |  | Rescue at 10 uM (%): 60%; Rescue at 15 uM (%): 70%; Rescue at 20 uM (%): 40%
CCOC(=O)C1=CCN(S(=O)(=O)c2cccc(Cl)c2)C1c1cccc(Br)c1 (stereo not shown) [FS120] |  | 56% | 
CCOC(=O)C1=CCN(S(=O)(=O)c2ccc(C)cc2)C1c1ccc(Br)cc1 (stereo not shown) [FS066] |  |  | Rescue at 10 uM (%): 11%
CCOC(=O)C1=CCN(S(=O)(=O)c2cccc(F)c2)C1c1ccc(F)cc1 (stereo not shown) [FS135] |  | 50% | 
CCOC(=O)C1=CCN(S(=O)(=O)c2ccccc2Br)C1c1ccc(F)cc1 (stereo not shown) [FS047] | 20% |  | 
CCOC(=O)C1=CCN(S(=O)(=O)c2ccccc2[N+](=O)[O-])C1c1ccc(C)cc1 (stereo not shown) [FS075] |  |  | Rescue at 10 uM (%): 0%
CCOC(=O)C1=CCN(S(=O)(=O)c2ccc(C)cc2)C1c1ccc2c(c1)OCO2 (stereo not shown) [FS059] | 20% |  | 
CCOC(=O)C1=CCN(S(=O)(=O)c2ccccc2Cl)C1c1ccc(C)cc1 (stereo not shown) [FS044] | 0% |  | 
CCOC(=O)C1=CCN(S(=O)(=O)c2ccc(Br)cc2)C1c1ccc(C)cc1 (stereo not shown) [FS102] | 0% |  | 
CCOC(=O)C1=CCN(S(=O)(=O)c2ccccc2Cl)C1c1ccccc1 (stereo not shown) [FS054] | 0% |  | 
CCOC(=O)C1=CCN(S(=O)(=O)c2ccc(F)cc2)C1c1cccc(Cl)c1 (stereo not shown) [FS114] |  | 22% | 
CCOC(=O)C1=CCN(S(C)(=O)=O)C1c1ccc(C)cc1 (stereo not shown) [FS140] |  | 0% | 
CCOC(=O)C1=CCN(S(=O)(=O)c2ccc([N+](=O)[O-])cc2)C1c1ccccc1 (stereo not shown) [FS142] |  |  | Rescue at 15 uM (%): 56%
CCOC(=O)C1=CCN(S(=O)(=O)c2ccccc2Cl)C1c1cccc(Cl)c1 (stereo not shown) [FS024] | 0% |  | 
CCOC(=O)C1=CCN(S(=O)(=O)c2ccccc2F)C1c1ccc(Cl)c(Cl)c1 (stereo not shown) [FS034] | 65% | 30% | responders at 20 µM: 20%
CCOC(=O)C1=CCN(S(=O)(=O)c2ccccc2Cl)C1c1ccc(F)cc1 (stereo not shown) [FS043] | 33% |  | 
CCOC(=O)C1=CCN(S(=O)(=O)c2ccc(Cl)cc2)C1c1ccc(F)cc1 (stereo not shown) [FS098] | 40% | 44% | responders at 20 µM: 89%
CCOC(=O)C1=CCN(S(=O)(=O)c2ccccc2)C1c1ccc(C)cc1 (stereo not shown) [FS077] |  |  | Rescue at 10 uM (%): 30%
CCOC(=O)C1=CCN(S(=O)(=O)c2ccc(Br)cc2)C1c1ccccc1 (stereo not shown) [FS104] |  |  | Rescue at 10 uM (%): 60%; Rescue at 15 uM (%): 50%; Rescue at 20 uM (%): 60%
